Experimental data published in the supplement of paper PMC13380429.

Experiments:
U2OS [1] = test: relative viability EC50 (midpoint between 100% and the lowest measured viability); higher = less toxic; conditions: 72 h
Vero E6 [2] = test: as above; conditions: 72 h
Calu-3 [3] = test: as above; conditions: 72 h
Caco-2 [4] = test: as above; conditions: 72 h
A549-ACE2 [5] = test: phospholipidosis EC50; higher = less potent phospholipidosis inducer
[6] = system: A549-ACE2 infected with SARS-CoV-2; test: SARS-CoV-2 infection rate relative to DMSO; higher = more infection; conditions: 24 h
A549-ACE2 [7] = test: drug-induced phospholipidosis relative to tamoxifen; higher = more phospholipidosis
U2OS [8] = test: cell viability relative to DMSO; higher = less toxic; conditions: 72 h
Vero E6 [9] = test: as above; conditions: 72 h
HepG2 [10] = test: as above; conditions: 72 h
Calu-3 [11] = test: as above; conditions: 72 h
Caco-2 [12] = test: as above; conditions: 72 h
[13] = system: A549-ACE2 infected with SARS-CoV-2; test: morphology score (similarity to uninfected cells); higher = more like uninfected cells; conditions: 24 h
[14] = system: A549-ACE2 infected with SARS-CoV-2; test: cell count relative to DMSO; higher = less toxic; conditions: 24 h
U2OS [15] = test: drug sensitivity score (DSS) for viability; higher = more toxic; extreme values may be limits of the assay; conditions: 72 h
Vero E6 [16] = test: as above; conditions: 72 h
HepG2 [17] = test: as above; conditions: 72 h
Calu-3 [18] = test: as above; conditions: 72 h
Caco-2 [19] = test: as above; conditions: 72 h
HepG2 [20] = test: relative viability EC50 (midpoint between 100% and the lowest measured viability); higher = less toxic; conditions: 72 h

COc1ccc(/C=C/C(=O)/C=C(O)/C=C/c2ccc(OC)c(OC)c2)cc1OC [ASC-J9]
Conditions	drug sensitivity score	relative viability EC50
Caco-2 [4]	–	3190 nM
Caco-2 [19]	2.9	–
Calu-3 [3]	–	> 10000 nM
Calu-3 [18]	0.3	–
HepG2 [17]	3	–
U2OS [1]	–	2980 nM
U2OS [15]	4.3	–
Vero E6 [2]	–	> 10 µM
Vero E6 [16]	0	–

Conditions	SARS-CoV-2 infection rate [%]	cell count [%]	cell viability [%]	morphology score	phospholipidosis EC50 [µM]
A549-ACE2 [5], 24 h	–	–	–	–	20
Caco-2 [12], 1 nM	–	–	90.7	–	–
Caco-2 [12], 10 nM	–	–	92.8	–	–
Caco-2 [12], 100 nM	–	–	92.9	–	–
Caco-2 [12], 1000 nM	–	–	100	–	–
Caco-2 [12], 10000 nM	–	–	45.2	–	–
Calu-3 [11], 1 nM	–	–	96.5	–	–
Calu-3 [11], 10 nM	–	–	94.9	–	–
Calu-3 [11], 100 nM	–	–	110	–	–
Calu-3 [11], 1000 nM	–	–	108	–	–
Calu-3 [11], 10000 nM	–	–	81.9	–	–
HepG2 [10], 1 nM	–	–	118	–	–
HepG2 [10], 10 nM	–	–	106	–	–
HepG2 [10], 100 nM	–	–	111	–	–
HepG2 [10], 1000 nM	–	–	95.4	–	–
HepG2 [10], 10000 nM	–	–	55.8	–	–
U2OS [8], 1 nM	–	–	96.1	–	–
U2OS [8], 10 nM	–	–	97.5	–	–
U2OS [8], 100 nM	–	–	95.3	–	–
U2OS [8], 1000 nM	–	–	98.1	–	–
U2OS [8], 10000 nM	–	–	26.5	–	–
Vero E6 [9], 1 nM	–	–	99.2	–	–
Vero E6 [9], 10 nM	–	–	93.9	–	–
Vero E6 [9], 100 nM	–	–	103	–	–
Vero E6 [9], 1000 nM	–	–	101	–	–
Vero E6 [9], 10000 nM	–	–	103	–	–
[6], 0.3 µM	98	–	–	–	–
[6], 3 µM	97	–	–	–	–
[6], 10 µM	87	–	–	–	–
[6], 30 µM	25	–	–	–	–
[13], 0.3 µM	–	–	–	0.01	–
[13], 3 µM	–	–	–	-0.06	–
[13], 10 µM	–	–	–	0.39	–
[13], 30 µM	–	–	–	0.56	–
[14], 0.3 µM	–	100	–	–	–
[14], 3 µM	–	101	–	–	–
[14], 10 µM	–	98	–	–	–
[14], 30 µM	–	70	–	–	–

drug-induced phospholipidosis [%], A549-ACE2 [7]
Conditions	0.3 µM	0.833333 µM	3.33333 µM	6.66667 µM	10 µM	30 µM
24 h	0.46	-1.23	4.99	24.2	40.1	139
48 h	1.84	-1.1	1.58	8.23	13.3	45.5
72 h	4.19	-0.9	1.28	7.61	9.79	37.4

NC(=O)c1cnc(N[C@@H]2CCCC[C@@H]2N)nc1Nc1cccc(-n2nccn2)c1
Conditions	drug sensitivity score	relative viability EC50
Caco-2 [4]	–	2130 nM
Caco-2 [19]	4.2	–
Calu-3 [3]	–	918 nM
Calu-3 [18]	6.7	–
HepG2 [17]	4.5	–
HepG2 [20]	–	2570 nM
U2OS [1]	–	2240 nM
U2OS [15]	3.9	–
Vero E6 [2]	–	> 10 µM
Vero E6 [16]	0.7	–

Conditions	SARS-CoV-2 infection rate [%]	cell count [%]	cell viability [%]	morphology score	phospholipidosis EC50 [µM]
A549-ACE2 [5], 24 h	–	–	–	–	6.68
A549-ACE2 [5], 48 h	–	–	–	–	4.26
Caco-2 [12], 1 nM	–	–	94.6	–	–
Caco-2 [12], 10 nM	–	–	92.9	–	–
Caco-2 [12], 100 nM	–	–	91.5	–	–
Caco-2 [12], 1000 nM	–	–	93	–	–
Caco-2 [12], 10000 nM	–	–	44.7	–	–
Calu-3 [11], 1 nM	–	–	97.3	–	–
Calu-3 [11], 10 nM	–	–	94.5	–	–
Calu-3 [11], 100 nM	–	–	101	–	–
Calu-3 [11], 1000 nM	–	–	69.6	–	–
Calu-3 [11], 10000 nM	–	–	45.2	–	–
HepG2 [10], 1 nM	–	–	101	–	–
HepG2 [10], 10 nM	–	–	101	–	–
HepG2 [10], 100 nM	–	–	99.1	–	–
HepG2 [10], 1000 nM	–	–	95	–	–
HepG2 [10], 10000 nM	–	–	31.7	–	–
U2OS [8], 1 nM	–	–	99.7	–	–
U2OS [8], 10 nM	–	–	96.8	–	–
U2OS [8], 100 nM	–	–	106	–	–
U2OS [8], 1000 nM	–	–	93.9	–	–
U2OS [8], 10000 nM	–	–	46.1	–	–
Vero E6 [9], 1 nM	–	–	98.9	–	–
Vero E6 [9], 10 nM	–	–	100	–	–
Vero E6 [9], 100 nM	–	–	91.1	–	–
Vero E6 [9], 1000 nM	–	–	98.4	–	–
Vero E6 [9], 10000 nM	–	–	81.6	–	–
[6], 0.3 µM	104	–	–	–	–
[6], 3 µM	32	–	–	–	–
[6], 10 µM	72	–	–	–	–
[6], 30 µM	121	–	–	–	–
[13], 0.3 µM	–	–	–	-0.18	–
[13], 3 µM	–	–	–	0.74	–
[13], 10 µM	–	–	–	0.43	–
[13], 30 µM	–	–	–	0.3	–
[14], 0.3 µM	–	94	–	–	–
[14], 3 µM	–	101	–	–	–
[14], 10 µM	–	50	–	–	–
[14], 30 µM	–	1	–	–	–

drug-induced phospholipidosis [%], A549-ACE2 [7]
Conditions	0.3 µM	0.833333 µM	3.33333 µM	6.66667 µM	10 µM
24 h	1.48	0.83	27.1	71.6	99.3
48 h	4.57	2.08	16.9	73.9	–
72 h	3.49	-1.55	12.3	69.8	–
